Drawing on US20220356174A1, “PYRIDIN-2-ONE COMPOUNDS USEFUL AS SMARCA2 ANTAGONISTS” (Epizyme, Inc., priority 2018, published 2022), this text covers IC50 for 25 molecules.

T1 sequence (P51531 with tags, fused parts or gaps): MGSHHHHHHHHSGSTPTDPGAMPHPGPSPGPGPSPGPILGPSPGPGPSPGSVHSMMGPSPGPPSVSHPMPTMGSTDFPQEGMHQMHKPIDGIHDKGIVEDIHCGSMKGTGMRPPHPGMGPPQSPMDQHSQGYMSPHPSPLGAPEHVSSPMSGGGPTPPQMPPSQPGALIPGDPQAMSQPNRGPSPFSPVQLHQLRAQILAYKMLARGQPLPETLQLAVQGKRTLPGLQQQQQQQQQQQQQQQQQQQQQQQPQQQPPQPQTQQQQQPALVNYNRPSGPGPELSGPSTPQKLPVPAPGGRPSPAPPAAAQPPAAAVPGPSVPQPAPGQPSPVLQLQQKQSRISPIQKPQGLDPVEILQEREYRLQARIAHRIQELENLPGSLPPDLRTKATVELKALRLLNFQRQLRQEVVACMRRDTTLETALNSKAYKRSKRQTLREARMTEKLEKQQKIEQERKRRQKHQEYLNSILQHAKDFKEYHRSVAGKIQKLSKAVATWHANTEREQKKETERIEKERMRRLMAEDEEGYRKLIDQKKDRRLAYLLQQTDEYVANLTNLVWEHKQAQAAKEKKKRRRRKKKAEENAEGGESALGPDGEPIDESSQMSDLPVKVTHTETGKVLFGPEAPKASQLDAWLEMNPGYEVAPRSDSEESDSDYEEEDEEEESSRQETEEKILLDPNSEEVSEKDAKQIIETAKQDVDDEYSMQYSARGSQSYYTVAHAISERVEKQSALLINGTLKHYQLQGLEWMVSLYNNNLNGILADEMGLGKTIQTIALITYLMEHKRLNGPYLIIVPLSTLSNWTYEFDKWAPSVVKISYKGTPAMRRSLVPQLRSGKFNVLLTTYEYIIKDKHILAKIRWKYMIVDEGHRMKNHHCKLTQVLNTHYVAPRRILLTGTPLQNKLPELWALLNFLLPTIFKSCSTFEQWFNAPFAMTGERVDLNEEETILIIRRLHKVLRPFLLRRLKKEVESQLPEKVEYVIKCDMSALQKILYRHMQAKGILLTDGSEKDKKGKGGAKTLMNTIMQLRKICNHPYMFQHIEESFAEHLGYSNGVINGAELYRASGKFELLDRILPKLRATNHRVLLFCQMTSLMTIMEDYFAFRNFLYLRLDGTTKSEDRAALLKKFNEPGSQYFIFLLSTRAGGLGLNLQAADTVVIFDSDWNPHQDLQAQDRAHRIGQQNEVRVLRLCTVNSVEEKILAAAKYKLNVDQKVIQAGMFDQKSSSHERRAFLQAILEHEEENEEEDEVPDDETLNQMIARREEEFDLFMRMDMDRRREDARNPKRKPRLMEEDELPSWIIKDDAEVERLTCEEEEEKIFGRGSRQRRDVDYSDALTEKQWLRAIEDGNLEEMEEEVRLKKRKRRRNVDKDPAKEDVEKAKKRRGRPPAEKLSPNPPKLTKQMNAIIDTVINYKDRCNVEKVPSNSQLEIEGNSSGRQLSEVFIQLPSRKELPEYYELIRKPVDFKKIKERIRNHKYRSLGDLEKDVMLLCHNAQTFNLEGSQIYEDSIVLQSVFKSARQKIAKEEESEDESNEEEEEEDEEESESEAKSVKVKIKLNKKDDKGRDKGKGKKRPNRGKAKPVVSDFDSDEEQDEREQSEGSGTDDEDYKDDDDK

One assay addresses T1, FL-SMARCA2 (full-length human SMARCA2 isoform 1) (Homo sapiens, UniProt P51531).
T1 construct: FLAG tag (YKDDDDK) (C); made in house; host or cells: Sf21 insect cells (baculovirus, pFastBacI)
Put plainly: SMARCA2 ATPase activity assay (ADP-Glo, chicken mononucleosome substrate). Type of assay: biochemical. Conditions: Table 3a.1; SMARCA2 5 nM, ATP 250 uM, mononucleosome 10 nM.
Consider `CCn1cc(NC(=O)c2ccc3c(n2)OCO3)ccc1=O` [Compound 37a], for which the IC50 is more than 50000 nM.

The same assay, now with this note: Table 3b.1; SMARCA2 5 nM, ATP 250 uM, mononucleosome 10 nM.
`N#Cc1ccc(C(=O)Nc2cc(F)c(=O)n(CCF)c2)cc1Cl` [Compound 19b] showed an IC50 of 2020 nM.

Staying with this assay, now noted: Table 3c.1; ATPase assay, enzyme 5 nM, ATP 250 uM, chicken mononucleosome 10 nM, 30 min preincubation.
In turn, `O=C(Nc1cc(F)c(=O)n(CC(F)F)c1)c1nnc(Cl)o1` [Compound 1c] returned an IC50 of 402 nM.
In turn, `O=C(Nc1cc(F)c(=O)n(CC(F)F)c1)c1cc(C#Cc2cccc(CO)c2)c(Cl)s1` [Compound 138c] yielded an IC50 of 28.8 nM.

The same assay, now with this note: Table 3.1; ATPase assay, enzyme 5 nM, ATP 250 uM, chicken mononucleosome 10 nM, 30 min preincubation.
Molecule `CCn1cc(NC(=O)c2cc(Cl)n(C)c2Cl)ccc1=O` [Compound 96] registered an IC50 of more than 50000 nM.
Still for that read-out and setting: the value for `CN(C)C(=O)c1cc(C(=O)Nc2cc(F)c(=O)n(CCF)c2)sc1Cl` [Compound 299] was more than 50000 nM; that for `Cn1c(C(=O)Nc2cc(C#N)c(=O)n(CCF)c2)cnc1Cl` [Compound 213] was 17900 nM; that for `N#Cc1cc(C(=O)Nc2ccc(=O)n(CC(F)(F)F)c2)sc1C#N` [Compound 198] was 107 nM.
Consider `Cn1c(C(=O)Nc2cc(F)c(=O)n(CCF)c2)cc(Cl)c1Cl` [Compound 153], for which the IC50 stood at 147 nM.
Take `O=C(Nc1cc(F)c(=O)n(CC(F)F)c1)c1cc(C#Cc2cccnc2)c(Cl)s1` [Compound 329]: the IC50 was 31.2 nM.
On to `O=C(Nc1cc(F)c(=O)n(CCF)c1)c1cc(Cl)c(C#CCN2CCCC2)s1` [Compound 276], for which the IC50 stood at 28700 nM.
Turning to `CCn1cc(NC(=O)c2cc(Cl)c(Cl)s2)cc(OCCOC)c1=O` [Compound 118], the IC50 is more than 50000 nM.
The same measure, in the same setting: the value for `CCn1cc(NC(=O)c2csc(NC3CCCC3)n2)ccc1=O` [Compound 202] was more than 50000 nM.
The same measure, in the same setting: the value for `CCn1cc(NC(=O)c2cnc(C#N)[nH]2)ccc1=O` [Compound 183] was more than 50000 nM; that for `O=C(Nc1cc(F)c(=O)n(CC(F)F)c1)c1cc(Cl)no1` [Compound 326] was 3780 nM; that for `Cn1c(C(=O)Nc2cc(Cl)c(=O)n(CC(F)(F)F)c2)cc(Cl)c1C#N` [Compound 163] was 309 nM.
Molecule `CCn1cc(NC(=O)c2cc(Cl)c(Cl)n2CCF)ccc1=O` [Compound 60] gave an IC50 of 16700 nM.
`O=C(Nc1ccc(=O)n(CCF)c1)c1cc(Cl)n[nH]1` [Compound 154]: the IC50 was determined as 1930 nM.
Still for that read-out and setting: as for `N#Cc1sc(C(=O)Nc2ccc(=O)n(CCF)c2)cc1Cl` [Compound 132], the figure is 142 nM; as for `CCn1cc(NC(=O)c2nc(-c3ccc(OC)cc3)oc2C)ccc1=O` [Compound 3], more than 50000 nM.
For `CS(=O)(=O)c1sc(C(=O)Nc2cc(F)c(=O)n(CCF)c2)cc1Cl` [Compound 301], the IC50 came to 16700 nM.

The same assay, now with this note: Table 3d.1; ATPase assay, enzyme 5 nM, ATP 250 uM, chicken mononucleosome 10 nM, 30 min preincubation; read-out: FL-SMARCA2 IC>50.
Turning to `O=C(Nc1cc(F)c(=O)n(CC(F)F)c1)c1nc(Cl)c(Cl)[nH]1` [Compound 39d], the IC50 was more than 50000 nM.
`O=C(Nc1cc(F)c(=O)n(CC(F)F)c1)c1coc(Cl)n1` [Compound 37d]: the IC50 was more than 50000 nM.
Turning to `N#Cc1cc(C(=O)Nc2cc(F)c(=O)n(CC(F)F)c2)sc1C1(F)CC1` [Compound 94d], the IC50 was 1770 nM.
The same measure, in the same setting: the value for `O=C(Nc1cc(F)c(=O)n(CC(F)F)c1)c1sc(Cl)c(Cl)c1O` [Compound 49d] was more than 50000 nM.

In the next assay the target is FL-SMARCA4 (Homo sapiens, UniProt P51532). Put plainly: SMARCA4 ATPase activity assay (ADP-Glo, chicken mononucleosome substrate). Conditions: FL-SMARCA4 IC50. (In general: ADP-Glo turns the ADP formed in a reaction into a luminescent signal.)
Sequence of FL-SMARCA4 (P51532 whole entry): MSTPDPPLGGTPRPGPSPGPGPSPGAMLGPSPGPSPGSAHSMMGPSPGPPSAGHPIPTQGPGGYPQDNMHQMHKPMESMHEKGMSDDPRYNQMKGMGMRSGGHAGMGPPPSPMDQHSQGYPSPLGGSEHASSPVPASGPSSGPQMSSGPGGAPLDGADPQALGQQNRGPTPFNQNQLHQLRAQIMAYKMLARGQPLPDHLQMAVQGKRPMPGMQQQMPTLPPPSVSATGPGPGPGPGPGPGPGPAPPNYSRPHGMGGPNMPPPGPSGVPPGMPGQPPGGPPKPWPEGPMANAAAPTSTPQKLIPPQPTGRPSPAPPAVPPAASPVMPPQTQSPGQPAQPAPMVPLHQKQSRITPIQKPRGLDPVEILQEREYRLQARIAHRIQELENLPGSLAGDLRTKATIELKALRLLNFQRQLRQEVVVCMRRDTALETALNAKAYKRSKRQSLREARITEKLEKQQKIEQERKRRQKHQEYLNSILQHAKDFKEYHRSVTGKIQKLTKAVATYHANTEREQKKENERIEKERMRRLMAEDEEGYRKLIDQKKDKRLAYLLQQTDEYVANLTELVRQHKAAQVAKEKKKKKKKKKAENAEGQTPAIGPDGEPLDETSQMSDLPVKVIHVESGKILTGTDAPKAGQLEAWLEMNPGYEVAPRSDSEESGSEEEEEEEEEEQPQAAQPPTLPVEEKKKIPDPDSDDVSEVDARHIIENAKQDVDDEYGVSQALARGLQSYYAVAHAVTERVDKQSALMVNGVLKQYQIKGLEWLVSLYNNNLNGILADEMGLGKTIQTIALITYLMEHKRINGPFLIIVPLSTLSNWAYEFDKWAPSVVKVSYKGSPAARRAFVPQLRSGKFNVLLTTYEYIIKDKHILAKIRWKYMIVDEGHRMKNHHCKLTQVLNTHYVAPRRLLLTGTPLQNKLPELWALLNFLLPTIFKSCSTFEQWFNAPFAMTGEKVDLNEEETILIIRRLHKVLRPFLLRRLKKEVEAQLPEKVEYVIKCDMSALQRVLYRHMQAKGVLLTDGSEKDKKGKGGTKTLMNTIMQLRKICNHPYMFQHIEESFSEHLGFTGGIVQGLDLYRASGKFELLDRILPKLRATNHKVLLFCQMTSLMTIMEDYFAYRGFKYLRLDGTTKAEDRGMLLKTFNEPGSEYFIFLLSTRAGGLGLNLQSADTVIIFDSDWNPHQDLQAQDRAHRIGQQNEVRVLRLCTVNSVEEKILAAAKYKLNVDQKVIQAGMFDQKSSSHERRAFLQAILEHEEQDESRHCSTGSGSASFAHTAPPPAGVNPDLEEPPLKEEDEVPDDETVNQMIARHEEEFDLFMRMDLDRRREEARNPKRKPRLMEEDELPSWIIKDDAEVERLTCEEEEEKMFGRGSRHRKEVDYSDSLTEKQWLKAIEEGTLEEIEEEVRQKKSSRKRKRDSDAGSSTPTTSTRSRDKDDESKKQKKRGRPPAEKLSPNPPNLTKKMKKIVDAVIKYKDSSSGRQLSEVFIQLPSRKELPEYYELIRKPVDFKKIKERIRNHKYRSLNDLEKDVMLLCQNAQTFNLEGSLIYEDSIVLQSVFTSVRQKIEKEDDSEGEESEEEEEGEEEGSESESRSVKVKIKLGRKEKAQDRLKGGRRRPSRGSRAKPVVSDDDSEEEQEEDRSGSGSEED
The molecule `O=C(Nc1cc(F)c(=O)n(CC(F)F)c1)c1nc(Cl)c(Cl)[nH]1` [Compound 39d] gave an IC50 of more than 50 µM.
On the same count and under the same terms, as for `O=C(Nc1cc(F)c(=O)n(CC(F)F)c1)c1coc(Cl)n1` [Compound 37d], the figure is more than 50 µM.
`N#Cc1cc(C(=O)Nc2cc(F)c(=O)n(CC(F)F)c2)sc1C1(F)CC1` [Compound 94d]: the IC50 was 17.9 µM.
Same read-out and setting: the value for `O=C(Nc1cc(F)c(=O)n(CC(F)F)c1)c1sc(Cl)c(Cl)c1O` [Compound 49d] was more than 50 µM.

Still in this assay, the particulars now being: FL-SMARCA4 IC50, Table 3a.2; SMARCA4 5 nM, ATP 250 uM, mononucleosome 10 nM.
Molecule `CCn1cc(NC(=O)c2ccc3c(n2)OCO3)ccc1=O` [Compound 37a] showed an IC50 of more than 50 µM.

The same assay, now with this note: FL-SMARCA4 IC50, Table 3b.2; SMARCA4 5 nM, ATP 250 uM, mononucleosome 10 nM.
In turn, `N#Cc1ccc(C(=O)Nc2cc(F)c(=O)n(CCF)c2)cc1Cl` [Compound 19b] yielded an IC50 of 12.6 µM.

Still in this assay, the particulars now being: FL-SMARCA4 IC50, Table 3.2; ATPase assay, enzyme 5 nM, ATP 250 uM, chicken mononucleosome 10 nM, 30 min preincubation.
`CCn1cc(NC(=O)c2cc(Cl)n(C)c2Cl)ccc1=O` [Compound 96] returned an IC50 of more than 50 µM.
Same read-out and setting: as for `CN(C)C(=O)c1cc(C(=O)Nc2cc(F)c(=O)n(CCF)c2)sc1Cl` [Compound 299], the figure is more than 50 µM.
On the same count and under the same terms, the value for `Cn1c(C(=O)Nc2cc(C#N)c(=O)n(CCF)c2)cnc1Cl` [Compound 213] was more than 50 µM; that for `N#Cc1cc(C(=O)Nc2ccc(=O)n(CC(F)(F)F)c2)sc1C#N` [Compound 198] was 0.283 µM; that for `Cn1c(C(=O)Nc2cc(F)c(=O)n(CCF)c2)cc(Cl)c1Cl` [Compound 153] was 0.715 µM.
Turning to `O=C(Nc1cc(F)c(=O)n(CC(F)F)c1)c1cc(C#Cc2cccnc2)c(Cl)s1` [Compound 329], the IC50 was 0.111 µM.
On to `O=C(Nc1cc(F)c(=O)n(CCF)c1)c1cc(Cl)c(C#CCN2CCCC2)s1` [Compound 276], for which the IC50 was 47.1 µM.
Molecule `CCn1cc(NC(=O)c2cc(Cl)c(Cl)s2)cc(OCCOC)c1=O` [Compound 118] displayed an IC50 of more than 50 µM.
With `CCn1cc(NC(=O)c2csc(NC3CCCC3)n2)ccc1=O` [Compound 202], the IC50 is more than 50 µM.
Take `CCn1cc(NC(=O)c2cnc(C#N)[nH]2)ccc1=O` [Compound 183]: the IC50 was more than 50 µM.
Molecule `O=C(Nc1cc(F)c(=O)n(CC(F)F)c1)c1cc(Cl)no1` [Compound 326] came in with an IC50 of 17.2 µM.
The molecule `Cn1c(C(=O)Nc2cc(Cl)c(=O)n(CC(F)(F)F)c2)cc(Cl)c1C#N` [Compound 163] showed an IC50 of 1.17 µM.
Regarding `CCn1cc(NC(=O)c2cc(Cl)c(Cl)n2CCF)ccc1=O` [Compound 60], the IC50 stood at 34.7 µM.
In turn, `O=C(Nc1ccc(=O)n(CCF)c1)c1cc(Cl)n[nH]1` [Compound 154] showed an IC50 of 8.08 µM.
`N#Cc1sc(C(=O)Nc2ccc(=O)n(CCF)c2)cc1Cl` [Compound 132] came in with an IC50 of 0.3 µM.
In turn, `CCn1cc(NC(=O)c2nc(-c3ccc(OC)cc3)oc2C)ccc1=O` [Compound 3] gave an IC50 of more than 50 µM.
The same measure, in the same setting: the value for `CS(=O)(=O)c1sc(C(=O)Nc2cc(F)c(=O)n(CCF)c2)cc1Cl` [Compound 301] was more than 50 µM.

The assay is the same for the next values; noted with them: FL-SMARCA4 IC>50, Table 3c.2; ATPase assay, enzyme 5 nM, ATP 250 uM, chicken mononucleosome 10 nM, 30 min preincubation.
`O=C(Nc1cc(F)c(=O)n(CC(F)F)c1)c1nnc(Cl)o1` [Compound 1c] yielded an IC50 of more than 50 µM.
For `O=C(Nc1cc(F)c(=O)n(CC(F)F)c1)c1cc(C#Cc2cccc(CO)c2)c(Cl)s1` [Compound 138c], the IC50 came out at 0.0657 µM.
